Measured values: ChEMBL document CHEMBL1142633, “A cytotoxic lobane diterpene from the formosan soft coral Sinularia inelegans” (2000)
Converted amounts (≈) assume the structure as drawn.

Columns and labels:
A549 = experiment: Cytotoxicity against human A549 cells; assay type: functional
P388 = experiment: Cytotoxicity against mouse P388 cells; assay type: functional

SMILES: C=C[C@@]1(C)CC[C@H](/C(C)=C\CCC(=C)C)C[C@@H]1C(=C)C [INELEGANENE]
- GI50 (A549): 3.63 mg/L (≈ 13.3 µM)
- GI50 (P388): 0.2 mg/L (≈ 0.734 µM)
